Several values for one entry are separate records, joined by “and”; a condition that tells them apart may be missing. Equal entries are not always repeated. Where two headings read alike, the source gives them in different places.
Tests used:
[1] = molecular target: Testosterone 5α-reductase; assay: Testosterone 5α-reductase inhibitory action (nuclear fraction of ventral prostate); assay type: biochemical, rat (male Wistar); settings: rat ventral prostate nuclear fraction; [4-^14 C]-testosterone, NADPH; 60 min at 37° C
Method: Testosterone 5α-Reductase Inhibitory Action
Male Wistar rats (age: 9-10 weeks old) were anesthetized with ethyl ether and ventral prostates were dissected. The isolated prostates were weighed and homogenized with ultradisperser(Yamato, Japan) and teflon-glass homogenizer in 3 tissue volumes of 50 mM Tris-HCl buffer(pH 7.2) containing 0.25M sucrose and 1 mM dithiothreitol. The homogenates were filtered with gauze and centrifuged at 3,000 rpm for 10 minutes at 4° C. The pellets were resuspended in same buffer as described above and the resultant suspension was used as the nuclear fraction.
Testosterone 5α-reductase activity was carried out described as follows. The reaction mixture contained […] of nuclear fraction 0.1 ml of 5 mM NADPH, 0.01 ml of test drug dissolved in dimethylsulfoxide and 0.78ml of Tris-HCl buffer(pH 7.0). The reaction was started by addition of 0.01 ml of 150 μM [4-^14 C]-testosterone and incubated for 60 minutes at 37° C. After incubation, reaction was stopped by adding 4 ml of ethyl acetate. 3 ml of ethyl acetate was evaporated under nitrogen to dryness and dissolved in 40 μl of ethyl acetate. 10 μl of ethyl acetate was applied to silica gel thin layer plate(HF254, Merck) and the plate was developed in ethyl acetate and cyclohexane(1:1). The plate was subjected to autoradiography and the radioactivity profiles were determined by scraping the spots of testosterone, dihydrotestosterone and other metabolites and counting in a scintillation counter. Testosterone 5a -reductase activity was calculated for the total radioactivity and radioactivities of dihydrotestosterone and other metabolites. The inhibitory activity of test drug was expressed as IC50 (nM).

α1 -Adrenoceptor = molecular target: T1, α1 -Adrenoceptor (Oryctolagus cuniculus, UniProt O02824); assay: α1-Adrenoceptor blocking action (antagonism of phenylephrine-induced contraction of isolated urethra and prostate strips); assay type: cell-based, rabbit (male albino)
T1 construct: smooth muscle strips were prepared from prostate and proximal urethra; from tissue; host or cells: rabbit prostate and proximal urethra smooth muscle strips
T1 sequence (O02824 1-466): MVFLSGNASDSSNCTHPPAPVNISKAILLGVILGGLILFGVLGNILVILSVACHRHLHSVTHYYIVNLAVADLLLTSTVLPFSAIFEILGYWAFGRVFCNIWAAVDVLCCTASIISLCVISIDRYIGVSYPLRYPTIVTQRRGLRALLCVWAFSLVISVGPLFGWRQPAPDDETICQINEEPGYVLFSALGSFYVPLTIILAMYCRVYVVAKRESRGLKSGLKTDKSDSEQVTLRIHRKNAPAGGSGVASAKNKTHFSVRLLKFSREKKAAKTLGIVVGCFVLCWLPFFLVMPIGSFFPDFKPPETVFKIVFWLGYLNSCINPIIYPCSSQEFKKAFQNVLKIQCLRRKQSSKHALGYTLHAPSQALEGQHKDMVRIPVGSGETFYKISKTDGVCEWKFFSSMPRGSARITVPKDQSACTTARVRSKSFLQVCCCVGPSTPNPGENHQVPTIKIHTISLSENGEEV
Method: α1 -Adrenoceptor Blocking Action
Male albino rabbits were sacrificed by exsanguination, and the prostate and urethra were isolated. After removal of fat and connective tissues, tranverse smooth muscle strips were prepared from prostate and proximal urethra. Each segmental strip was suspended in an organ bath at 37° C. in a Krebs-Henseleit solution which had been bubbled with 95% O2 and 5% CO2. The isometric contraction under a resting tension of 1 g was recorded with a force-displacement transducer(TB-651T, Nihon Koden) on a recoder(RECTI HORIZ 8K, Nihon Sanei).
After an equilibration of tissues at least 60 minutes, contractions were elicited by repeated dose of phenylephrine until constant contraction responses were obtained. Subsequently, the dose-response curves were obtained by increasing concentrations of phenylephrine(10^-7 -×10^-4 M). After the resting period for 60 minutes, tissues were incubated with test drugs for 30 minutes and dose-response curves were constructed as described above.
In all cases, 10^-5 M propranolol(β-adrenoceptor antagonist) was administered 10 minutes before the contraction by phenylephrine.
The composition of the Krebs-Henseleit solution was as follows(mM): NaCl 118.4, KCl 4.7, MgSO4 1.2, CaCl2 2.5, NaHCO3 25.0, glucose 11.1, KH2 PO4 1.2.
The potency of each test drug was expressed as the pA2 value(negative logarithm of the antagonist dissociation constant).

[2] = isolated rabbit prostate strips, phenylephrine contraction, 30 min incubation with drug, 10^-5 M propranolol, pA2 = negative logarithm of antagonist dissociation constant, read-out: Prostate (pA2) (converted)
[3] = isolated rabbit proximal urethra strips, phenylephrine contraction, 30 min incubation with drug, 10^-5 M propranolol, pA2 = negative logarithm of antagonist dissociation constant, read-out: Urethra (pA2) (converted)

| Compound | IC50 [1] [nM] | Kb (α1 -Adrenoceptor) | also measured |
| --- | --- | --- | --- |
| COc1ccccc1N1CCN(CCCCOc2cc(C(=O)c3cn(CCCC(=O)O)c4ccccc34)ccc2OCc2ccc(C)cc2)CC1 [Example 46, Potassium 4-{3-{3-{4-[4-(2-methoxyphenyl)piperazin-1-yl]butoxy}-4-(4-methylphenylmethoxy)benzoyl}indol-1-yl}butanoate] | 1.5 | – | – |
| COc1ccccc1N1CCN(CCCOc2ccc(C(=O)c3cn(CCCC(=O)O)c4ccccc34)cc2)CC1 [Example 3, Potassium 4-{3-{4-{3-[4-(2-methoxyphenyl)piperazin-1-yl]propoxy}benzoyl}indol-1-yl}butanoate] | – | 115 nM and 75.9 nM | – |
| COc1ccccc1N1CCN(CCC(Oc2ccc(C(=O)c3cn(CCCC(=O)O)c4ccccc34)c(C)c2C)c2ccc(C)cc2)CC1 (stereo not drawn) [Example 22, 4-{3-{2,3-Dimethyl-4-{1-(4-methylphenyl)-3-[4-(2-methoxyphenyl)piperazin-1-yl]propoxy}benzoyl}indol-1-yl}butanoic acid] | 3.7 | – | – |
| CCOc1ccccc1N1CCN(CCCOc2cc(C(=O)c3cn(CCCC(=O)O)c4ccccc34)ccc2OCc2ccc(C)cc2)CC1 [Example 45, Potassium 4-{3-{4-(4-methylphenylmethoxy)-3-{3-[4-(2-ethoxyphenyl)piperazin-1-yl]propoxy}benzoyl}indol-1-yl}butanoate] | 1.5 | 56.2 nM and 34.7 nM | – |
| Cc1ccc(C(CCN2CCN(c3ccccc3OC(C)C)CC2)Oc2ccc(C(=O)c3cn(CCCC(=O)O)c4ccccc34)cc2)cc1 (stereo not drawn) [Example 8, Potassium 4-{3-{4-{1-(4-methylphenyl)-3-[4-(2-isopropoxyphenyl)piperazin-1-yl]propoxy}benzoyl}indol-1-yl}butanoate] | 0.26 | – | – |
| COc1cc(C(=O)c2cn(CCCC(=O)O)c3ccccc23)ccc1OC(CCN1CCN(c2ccccc2OC)CC1)c1ccccc1 (stereo not drawn) [Example 14, Potassium 4-{3-{3-methoxy-4-{1-phenyl-3-[4-(2-methoxyphenyl)piperazin-1-yl]propoxy}benzoyl}indol-1-yl}butanoate] | – | 389 nM and 72.4 nM | – |
| COc1ccc(C(CCN2CCN(c3ccccc3OC)CC2)Oc2ccc(C(=O)c3cn(CCCC(=O)O)c4ccccc34)cc2)cc1 (stereo not drawn) [Example 20, Potassium 4-{3-{4-{1-(4-methoxyphenyl)-3-[4-(2-methoxyphenyl)piperazin-1-yl]propoxy}benzoyl}indol-1-yl}butanoate] | – | 692 nM and 562 nM | – |
| COc1cc(C(=O)c2cn(CCCC(=O)O)c3ccccc23)ccc1O[C@@H](CCN1CCN(c2ccccc2OC)CC1)c1ccccc1 [Example 35, Potassium S-4-{3-{3-methoxy-4-{1-phenyl-3-[4-(2-methoxyphenyl)piperazin-1-yl]propoxy}benzoyl}indol-1-yl}butanoate] | 6.8 | – | Kb (α1 -Adrenoceptor; [2]): 27.5 nM; Kb (α1 -Adrenoceptor; [3]): 64.6 nM |
| COc1ccccc1N1CCN(CCCOc2cc(C(=O)c3cn(CCCC(=O)O)c4ccccc34)ccc2OCc2ccc(F)cc2)CC1 [Example 42, Potassium 4-{3-{4-(4-fluorophenylmethoxy)-3-{3-[4-(2-methoxyphenyl)piperazin-1-yl]propoxy}benzoyl}indol-1-yl}butanoate] | – | 398 nM and 70.8 nM | – |
| COc1cc(C(=O)c2cn(CCCC(=O)O)c3ccccc23)ccc1OC(CCN1CCN(c2ccccc2OC(C)C)CC1)c1ccccc1 (stereo not drawn) [Example 16, Potassium 4-{3-{3-methoxy-4-{1-phenyl-3-[4-(2-isopropoxyphenyl)piperazin-1-yl]propoxy}benzoyl}indol-1-yl}butanoate] | – | 155 nM and 85.1 nM | – |
| COc1ccccc1N1CCN(CCCOc2cc(C(=O)c3cn(CCCC(=O)O)c4ccccc34)ccc2OCc2ccc(C)cc2)CC1 [Example 37, Potassium 4-{3-{4-(4-methylphenylmethoxy)-3-{3-[4-(2-methoxyphenyl)piperazin-1-yl]propoxy}benzoyl}indol-1-yl}butanoate] | 3.5 | 120 nM and 19.1 nM | – |
| COc1cc(C(=O)c2cn(CCCC(=O)O)c3ccccc23)ccc1OC(CCN1CCN(c2ccccc2OC)CC1)c1ccc(C)cc1 (stereo not drawn) [Example 1, Potassium 4-{3-{3-methoxy-4-{1-(4-methylphenyl)-3-[4-(2-methoxyphenyl)piperazin-1-yl]propoxy}benzoyl}indol-1-yl} butanoate] | 3.7 | – | Kb (α1 -Adrenoceptor; [2]): 87.1 nM; Kb (α1 -Adrenoceptor; [3]): 380 nM |
| COc1ccccc1N1CCN(CCC(Oc2cccc(C(=O)c3cn(CCCC(=O)O)c4ccccc34)c2)c2ccc(C)cc2)CC1 (stereo not drawn) [Example 28, Potassium 4-{3-{3-{1-(4-methylphenyl)-3-[4-(2-methoxyphenyl)piperazin-1-yl]propoxy}benzoyl}indol-1-yl}butanoate] | – | 166 nM and 102 nM | – |
| CCOc1ccccc1N1CCN(CCC(Oc2ccc(C(=O)c3cn(CCCC(=O)O)c4ccccc34)cc2OC)c2ccccc2)CC1 (stereo not drawn) [Example 15, Potassium 4-{3-{3-methoxy-4-{1-phenyl-3-[4-(2-ethoxyphenyl)piperazin-1-yl]propoxy}benzoyl}indol-1-yl}butanoate] | 7.9 | 251 nM and 50.1 nM | – |
| COc1ccccc1N1CCN(CCCOc2cc(C(=O)c3cn(CCCC(=O)O)c4ccccc34)ccc2OCc2ccccc2)CC1 [Example 38, Potassium 4-{3-{4-benzyloxy-3-{3-[4-(2-methoxyphenyl)piperazin-1-yl]propoxy}benzoyl}indol-1-yl}butanoate] | – | 36.3 nM and 16.6 nM | – |
| CC(C)Oc1ccccc1N1CCN(CCC(Oc2ccc(C(=O)c3cn(CCCC(=O)O)c4ccccc34)cc2)c2ccccc2)CC1 (stereo not drawn) [Example 5, 4-{3-{4-{1-Phenyl-3-[4-(2-isopropoxyphenyl)piperazin-1-yl]propoxy}benzoyl}indol-1-yl}butanoic acid] | – | 1100 nM and 141 nM | – |
| COc1ccccc1N1CCN(CCC(Oc2ccc(C(=O)c3cn(CCCC(=O)O)c4ccccc34)cc2OCc2ccccc2)c2ccc(C)cc2)CC1 (stereo not drawn) [Example 26, 4-{3-{3-Benzyloxy-4-{1-(4-methylphenyl)-3-[4-(2-methoxyphenyl)piperazin-1-yl]propoxy}benzoyl}indol-1-yl}butanoic acid] | 5 | – | – |
| COc1cc(C(=O)c2cn(CCCC(=O)O)c3ccccc23)ccc1OC(CCN1CCN(c2ccccc2OC(C)C)CC1)c1ccc(C)cc1 (stereo not drawn) [Example 11, Potassium 4-{3-{3-methoxy-4-{1-(4-methylphenyl)-3-[4-(2-isopropoxyphenyl)piperazin-1-yl]propoxy}benzoyl}indol-1-yl}butanoate] | 3.1 | – | – |
| COc1cc(C(=O)c2cn(CCCC(=O)O)c3ccccc23)ccc1OC(CCN1CCN(c2ccccc2OC)CC1)c1ccc(CC(C)C)cc1 (stereo not drawn) [Example 13, Potassium 4-{3-{3-methoxy-4-{1-(4-isobutylphenyl)-3-[4-(2-methoxyphenyl)piperazin-1-yl]propoxy}benzoyl}indol-1-yl}butanoate] | 1.4 | – | – |
| COc1ccccc1N1CCN(CCCOc2ccc(C(=O)c3cn(CCCC(=O)O)c4ccccc34)cc2OCc2ccccc2)CC1 [Example 24, 4-{3-{3-Benzyloxy-4-{3-[4-(2-methoxyphenyl)piperazin-1-yl]propoxy}benzoyl}indol-1-yl}butanoic acid] | – | 631 nM and 100 nM | – |

Source: patent US5760040A, “Indole derivative for treating overproduction of dihydrotestosterone” (Zeria Pharmaceutical Co., Ltd., priority 1994, dated 1998)
